Reference: the OPERA property sets (Mansouri et al. 2018)
Peptide text beside a SMILES is read from it. * marks the point of attachment. NHtBu = CC(C)(C)N*

Settings: not given

Row | Compound | logP
1 | COCC1COC(Cn2cncn2)(c2ccc(Cl)cc2Cl)O1 (stereo unspecified) | 2.21
2 | CC(=O)Nc1ccc(O)c(C)c1C | 0.57
3 | CCCCCCOC(=O)c1ccc(O)cc1 | 4.35
4 | Cc1[nH]cnc1CSCCNc1cccc(=O)[nH]1 | 0.79
5 | O=c1ccnc(S)[nH]1 | -0.28
6 | O=c1[nH]cnc2ccccc12 | 0.77
7 | CC(C)(C)C(=O)Nc1ccccc1 | 1.99
8 | O=CNc1cccc([N+](=O)[O-])c1 | 1.4
9 | Cn1c(=O)ccc2ccccc21 | 1.45
10 | CC(=O)NC(C)C(=O)NCC(=O)NC(C)C(=O)NC(C)(C)C (stereo not drawn) (Ac-Ala-Gly-Ala-NHtBu; configuration not given here) | -0.6
11 | CC(C)CCC(=O)c1ccoc1 | 2.76
12 | CN(C)C(N(C)C)=S(I)c1cccc(Br)c1 (stereo unspecified) | 0.01
13 | COc1cccc(C(=O)NN)c1 | 0.4
14 | COCC(O)Cn1cnc([N+](=O)[O-])n1 (stereo unspecified) | -0.49
15 | Cc1ccc2cccc(C)c2c1 | 4.44
16 | CC1COC(=O)O1 (stereo unspecified) | -0.41
17 | CS(=O)(=O)c1ccc(C(O)C(CO)NC(=O)C(Cl)Cl)cc1 (stereo unspecified) | -0.27
18 | CCCCc1ccc(S(N)(=O)=O)cc1 | 2.45
19 | O=C(O)COc1ccc(Cl)cc1Cl | 2.81
20 | N#Cc1ccc2cc[nH]c2c1 | 2.38
21 | CC(C)c1ccccc1OC(=O)c1ccc(N)cc1O | 4.28
22 | O=NN(CCCl)C(=O)NC1CCCC1 | 2.2
23 | CCCCCOC(=O)NC | 1.96

Row | Compound | logP
24 | CCC(Br)C(=O)O (stereo unspecified) | 1.42
25 | Cc1ccc(NC(=O)N(C)C)cc1 | 1.33
26 | CCCN(N=O)C(N)=O | 0.3
27 | OCc1cccc(O)c1 | 0.49
28 | O=c1[nH]cc(Cl)c(=O)[nH]1 | -0.35
29 | Clc1ccc(-c2ccccc2)cc1 | 4.61
30 | COc1ccncc1 | 1
31 | OCCCCc1ccccc1 | 2.35
32 | CCC(C)C(=O)Nc1ccccc1 (stereo unspecified) | 2.56
33 | CCC(C)C(NCc1ccccc1)C(=O)O (stereo unspecified) | -0.27
34 | Cc1cccc2sc3nncn3c12 | 1.7
35 | Cc1ncc(CNC(=O)N(CCCl)N=O)c(N)n1 | 0.39
36 | CCC(C)NC(=O)C=C(Br)c1ccccc1 (stereo unspecified) | 3.56
37 | CC(C)N(N=O)C(C)C | 1.38
38 | CC(C)c1ccc(NC(=O)N(C)C)cc1 | 2.87
39 | O=C(O)c1ccc([N+](=O)[O-])cc1 | 1.89
40 | CC(=O)NCC(=O)N[C@@H](C)C(=O)N[C@H](C(N)=O)C(C)C (Ac-Gly-Ala-Val-NH2) | -1.56
41 | CCn1cc(C(=O)O)c(=O)c2cnc(N3CCNCC3)nc21 | -2.15
42 | O=C(COC(=O)c1ccccc1)NC1CCCCC1 | 2.81
43 | NS(=O)(=O)c1ccc2c(c1)S(=O)(=O)NC=N2 | -0.7
44 | CC(=O)Oc1ccc(N)cc1 | 0.45
45 | C(=NN1CCCCC1)c1ccccc1 | 3.04
46 | Nc1cc2ccccc2nn1 | 1

Row | Compound | logP
47 | CC(=O)Nc1ncc([N+](=O)[O-])s1 | 1.3
48 | CC1=C(C)C(=O)C(C)=C(C)C1=O | 2.23
49 | CCN(CC)C(=O)SCc1ccc(Cl)cc1 | 3.4
50 | CCOC(=O)OCC | 1.21
51 | CN(c1ccccc1)c1ccccc1 | 3.9
52 | CCOC(=O)C(=Cc1c(Cl)cccc1Cl)C(C)=O | 2.86
53 | O=Cc1ccc2ccccc2n1 | 2.14
54 | Clc1ccc(Cl)c(-c2ccc(Cl)c(Cl)c2)c1 | 6.23
55 | CC(Oc1ccc(Cl)cc1)C(=O)O (stereo unspecified) | 2.31
56 | c1c[nH]nn1 | -0.29
57 | COc1ccc(OCC(=O)O)cc1 | 1.23
58 | CCNC(=O)c1ccoc1 | 0.72
59 | Cn1c(=O)sc2ccccc21 | 1.98
60 | ClC(Cl)=C(Cl)Cl | 3.4
61 | COP1(=S)OCc2ccccc2O1 (stereo unspecified) | 2.67
62 | CON(C)C(=O)Nc1ccc(C=C(C#N)C#N)cc1 | 2.19
63 | CC(C)(C)N | 0.4
64 | CCC(=O)OC1(C(=O)CCl)C(C)CC2C3CCC4=CC(=O)C=CC4(C)C3C(=O)CC21C (stereo unspecified) | 3.3
65 | CCC(=O)C1(c2cccc(OC(=O)OCC(C)C)c2)CCN(C)CC1 | 2.38
67 | CC(=O)N(C)c1ccccc1 | 1.12
68 | Nc1cccc(Cl)c1 | 1.88
69 | COP(=S)(OC)SCC(=O)N(C)C=O | 1.48

Row | Compound | logP
70 | O=C(NC(CO)C(O)c1ccc([N+](=O)[O-])cc1)C(Br)(Br)Br (stereo unspecified) | 2.17
71 | COC(F)(F)C(Cl)Cl | 2.21
72 | COCC(C)OC (stereo unspecified) | -0.09
73 | CCOCOCC | 0.84
74 | CN(N=O)C(=O)NC1C(O)OC(CO)C(O)C1O (stereo unspecified) | -1.45
75 | CCc1ccc(N)cc1 | 1.96
76 | O=C(NC(CO)C(O)c1ccc([N+](=O)[O-])cc1)C(Br)Br (stereo unspecified) | 1.36
77 | CCCN(CC)CCC | 2.68
78 | O=S(=O)(Cc1ccccc1)c1ccccc1 | 2.05
79 | Cc1cccc(S(N)(=O)=O)c1 | 0.85
80 | CCCCC(NC(C)=O)C(=O)OC (stereo unspecified) | 0.79
81 | CC1CN1C1=C(F)C(=O)C(N2CC2C)=C(F)C1=O (stereo unspecified) | 1.61
82 | CCCC(C)=O | 0.91
83 | CCCCC(NC(Cc1ccccc1)C(=O)N1CCC(OCOC)CC1)C(=O)NC(CC1CCCCC1)C(O)CC(C(=O)NCCNc1noc(N)n1)C(C)C (stereo unspecified) | 4.11
84 | CC(=O)OC1CC(OC2C(O)CC(OC3C(C)OC(OC4CCC5(C)C(CCC6C5CC(O)C5(C)C(C7=CC(=O)OC7)CCC65O)C4)CC3OC(C)=O)OC2C)OC(C)C1O (stereo unspecified) | 2.45
85 | OCCCc1ccccn1 | 0.58
86 | CSc1ccc2c(c1)N(CCC1CCCCN1C)c1ccccc1S2 (stereo unspecified) | 5.9
87 | COC1OC(=O)c2ccccc21 (stereo unspecified) | 1
88 | COc1cc2c(c(OC)c1O)-c1ccc(OC)c(=O)cc1[C@@H](NC(C)=O)CC2 | 0.48
89 | CC1=NCCN1 | 0.52
90 | Nc1ccc(I)cc1 | 2.34
91 | CNC(=O)Oc1cccc2c1OC(C)(C)O2 | 1.7
92 | O=C(O)C(Cc1ccccc1)n1cccc1 (stereo unspecified) | 2.34

Row | Compound | logP
93 | Cc1nc(N)nc(N)c1C12CC3CC(CC(C3)C1)C2 | 2.64
94 | COC1C(O)C(C)OC(OC2CCC3(C)C(CCC4C3CCC3(C)C4(O)CC(O)C34C=CC(=O)OC4)C2)C1O (stereo unspecified) | 0.59
95 | NN(c1ccccc1)c1ccccc1 | 2.8
96 | O=C(NP(=O)(N1CC1)N1CC1)c1ccc(Cl)cc1 | 0.97
97 | CN(C)c1ccc(S(N)(=O)=O)cc1 | 0.76
98 | O=CNc1cccc(Cl)c1 | 1.9
99 | O=C1c2ccccc2C(=O)N1c1ccccc1 | 2.4
100 | CCC(C)NC(=O)C=C(Cl)c1ccccc1 (stereo unspecified) | 3.52
101 | Nc1ccc(C(=O)O)c(Cl)c1 | 1.33
102 | c1ccc2c(c1)Cc1ccccc1C2 | 4.25
103 | CNc1c(Cl)cccc1Cl | 2.91
104 | O=C1C=C(N2CCCC2)C(=O)C=C1N1CCCC1 | 1.97
105 | CNC(=O)Oc1ccc(C)c(C)c1 | 2.09
106 | CNP(=O)(OC)Oc1ccccc1Cl (stereo unspecified) | 1.61
107 | CCN(CC)C(=O)c1ccccc1 | 1.25
108 | O=C(Nc1ccn(C2OC(CO)C(O)C2O)c(=O)n1)c1ccccc1 (stereo unspecified) | 0.3
109 | O=C(O)Cc1ccc(Cl)cc1 | 2.12
110 | CCOC(OCC)OCC | 1.2
111 | Clc1cc(Cl)c(Cl)nc1Cl | 3.32
112 | OCCn1nnc2ccccc21 | 0.5
113 | CCCCN(C)C | 1.7
114 | CC(=O)NCCCOc1cccc(CN2CCCCC2)c1 | 2.15
115 | O=NN(CCCl)C(=O)Nc1ccccc1 | 2.49

Row | Compound | logP
116 | CCOC(N)=O | -0.15
117 | Cn1c(N)nc2ccc(C#N)cc21 | 1.29
118 | COc1cc(O)cc(OC)c1 | 1.64
119 | CCn1c(=O)c2[nH]c(-c3ccccc3)nc2n(CC)c1=O | 2.93
120 | CC(=O)[C@@]1(O)CC[C@H]2[C@@H]3CCC4=CC(=O)CC[C@]4(C)[C@H]3CC[C@@]21C | 3.17
121 | CCC1COC(Cn2cncn2)(c2ccc(-c3ccccc3)cc2)O1 (stereo unspecified) | 3.71
122 | CC(=O)NC(CCC(=O)O)C(=O)NC(Cc1ccccc1)C(=O)NC(CC(C)C)C(N)=O (stereo not drawn) (Ac-Glu-Phe-Leu-NH2; configuration not given here) | 0.32
123 | NC(=O)CBr | -0.52
124 | CC1=NN(CCOc2ccc3ccccc3c2)C(=O)C1 | 2.74
125 | N#CCC(=O)c1ccccc1 | 0.97
126 | CCCCSCS(=O)CC(C)NC(=O)C=Cc1c(C)[nH]c(=O)[nH]c1=O (stereo unspecified) | 0.82
127 | O=C(OCn1ncc2c(=O)[nH]cnc21)c1cccc(CN2CCOCC2)c1 | 1.13
128 | CC(C)(C)C#N | 1.08
129 | c1ccc(C2CO2)cc1 (stereo unspecified) | 1.61
130 | Nc1ccc(Cl)cc1N | 1.28
131 | Nc1nncc2ccccc12 | 0.82
132 | Clc1ccccc1Cl | 3.43
133 | Cn1cc[nH]c1=S | -0.34
134 | COc1ccc(CC#N)cc1 | 1.7
135 | CC(=O)CCC(C)=O | -0.27
136 | COc1ccc(-c2cc3ccccn3c2)cc1 | 4.2
137 | CCOC(=O)C(=Cc1ccccc1OC)C(C)=O | 2.39
138 | NC(=O)c1ccccc1O | 1.28

Row | Compound | logP
139 | O=C(O)c1ccccc1Cl | 2.05
140 | Cc1onc(-c2c(Cl)cccc2Cl)c1C(=O)N[C@@H]1C(=O)N2[C@@H]1SC(C)(C)[C@@H]2C(=O)O | 2.91
141 | CN(C)c1ccc(C(=C2C=CC(=[N+](C)C)C=C2)c2ccccc2)cc1.[Cl-] | 0.62
142 | CN(C)c1ccc(C#N)cc1 | 2.2
143 | C=C(C)C(=O)OC(C)(C)C | 2.54
144 | O=C1CCC(=O)N1c1ccccc1[N+](=O)[O-] | 0.36
145 | CN(C)C(=O)C(C(=O)N(C)C)C(=O)N(C)C | -3.09
146 | CCOC(=O)[C@H](O)[C@@H](O)C(=O)OCC | -0.29
147 | N#Cc1ccc2nc(N)[nH]c2c1 | 1.13
148 | CC(O)CN (stereo unspecified) | -0.96
149 | CC(=Cc1ccccc1)[N+](=O)[O-] | 2.52
150 | Nc1ncccn1 | -0.22
151 | CCCCCOC(=O)c1cc(O)c(O)c(O)c1 | 2.67
152 | CC(Oc1cc(Cl)c(Cl)cc1Cl)C(=O)O (stereo unspecified) | 3.8
153 | O=C(NP(=O)(N1CC1)N1CC1)c1ccccc1I | 1.05
154 | Cc1cc(NS(=O)(=O)c2ccc(N)cc2)nc(C)n1 | -0.33
155 | CCN(N=O)C(N)=O | 0.23
156 | O=[N+]([O-])c1ccccc1SSc1ccccc1[N+](=O)[O-] | 3.37
157 | CCCCCCNC(=O)c1[nH]nc(C)c1[N+](=O)[O-] | 2.46
158 | N#CNC(=N)N | -1.15
159 | COc1ccc(NC(=O)NN=Cc2ccc[nH]2)cc1 | 2.67
160 | NC(=S)c1ccccc1 | 1.49

Same assay, conditions: pH 7.2

Row | Compound | logD
161 | COC(=O)C(c1ccccc1)C1CCCCN1 (stereo unspecified) | 0.2
